Test results: patent US5252718A, “Fibroblast growth factor antagonists” (The Salk Institute for Biological Studies, priority 1992, dated 1993)
Square brackets hold non-standard residues; d marks the D form. Ends that are not written are not given here. Peptide text beside a SMILES is read from it. Sar = CNCC(=O)O

Legend:
3T3 cells = test: [^3 H]-thymidine incorporation in serum-starved 3T3 cells challenged with bFGF; assay type: cell-based; conditions: 24 hours with peptide and bFGF challenge, then 5 hours label, result in words
Procedure: The synthesis of bFGF(97-120)-NH2 having the formula: H-Arg-Leu-Glu-Ser-Asn-Asn-Tyr-Asn-Thr-Tyr-Arg-Ser-Arg-Lys-Tyr-Ser-Ser-Trp- Tyr-Val-Ala-Lys-Arg-NH2 is conducted in a stepwise manner using a Beckman 990 synthesizer and an MBHA resin in the manner described in Example I. The peptide is judged to be substantially pure using TLC and HPLC. Testing is carried out using a culture of serum-starved 3T3 cells which are incubated for 24 hours with the bFGF peptide fragment and a challenge dose of bFGF and then incubated for 5 hours with radioactive [^3 H]-thymidine to determine whether the fragment will inhibit the incorporation of [^3 H]-DNA in the cell line which will be indicative of its inhibiting cell growth.

[1] = system: FGF receptors of BHK cells; conditions: result in words
[2] = Binding to [^3 H]-heparin; conditions: result in words
BAAE cells = assay type: cell-based, bovine
Procedure: To determine the effectiveness of the bFGF fragment peptide to inhibit the growth of endothelial cells, the peptide is tested under conditions to measure its ability to modulate both basal cell growth and bFGF-simulated cell proliferation. A bioassay was employed of the type set forth in detail in Gospodarowicz et al., J. Cell Biol., 122, 323-333 (1985), using BAAE cells.
For each test, an initial cell density of between about 0.3-0.5×10^4 cells per well was established in 24-miniwell plates. After 6-8 hours, the cells in each well were treated with a challenge dose of bFGF in the absence, or presence to a varying concentration, of a synthetic FGF antagonist. The precise treatment was repeated 48 hours later. On the fifth day, the cells were digested with trypsin, and the total number of cells in each well was determined using a Coulter particle counter.

| Compound | inhibition of bFGF-induced mitosis ([^3 H]-thymidine incorporation) (3T3 cells) | inhibition of bFGF binding to BHK cells (receptor) [1] | binding of the peptide to heparin [2] | further results |
| --- | --- | --- | --- | --- |
| H-YRSRKYSSWFVALKR-NH2 [[Phe^115]-bFGF(106-120)-NH2, H-Tyr-Arg-Ser-Arg-Lys-Tyr-Ser-Ser-Trp-Phe-Val-Ala-Leu-Lys-Arg-NH2] | very good inhibition | very strongly inhibits | – | – |
| H-YNTYRSRKYSAWYVALKRTGQYKLGPKTGPGQKAILFLPMSAKS-NH2 [[Ala^113]-bFGF(103-146)-NH2] | – | very strongly inhibits | – | – |
| H-YRSRKYSSMYVALKR-NH2 [[Met^114]-bFGF(106-120)-NH2, H-Tyr-Arg-Ser-Arg-Lys-Tyr-Ser-Ser-Met-Tyr-Val-Ala-Leu-Lys-Arg-NH2] | very good inhibition | very strongly inhibits | – | – |
| H-Arg-Leu-Glu-Ser-Asn-Asn-Tyr-Asn-Thr-Tyr-Arg-Ser-Arg-Lys-Tyr-Ser-Ser-Trp- Tyr-Val-Ala-Lys-Arg-NH2 (H-RLESNNYNTYRSRKYSSWYVAKR-NH2) [bFGF(97-120)-NH2] | very good inhibition | very strongly inhibits | binds itself to heparin | – |
| H-Cys-Lys-Asn-Gly-Gly-Phe-Phe-T-Arg-Ile-His-Pro-Asp-NH2 [bFGF(25-37)-NH2] | – | – | fairly strong binding affinity | binding affinity for BHK cells [1]: fair affinity; antagonist activity to basal endothelial cell growth (BAAE cells; basal growth only, result in words): some antagonist activity |
| H-SNNYNTYRSRKYSSWYVALKR-NH2 [bFGF(100-120)-NH2, H-Ser-Asn-Asn-Tyr-Asn-Thr-Tyr-Arg-Ser-Arg-Lys-Tyr-Ser-Ser-Trp-Tyr-Val-Ala- Leu-Lys-Arg-NH2] | very good inhibition | very strongly inhibits | binds itself to heparin | – |
| H-YCKNGGFFLRIHPDGRVDGVREKSDPHIKLQLQAEERGVVSIKGV-NH2 [bFGF(24-68)-NH2] | – | – | strong affinity | ID50 (BAAE cells): about 5 micromolar; cell population reduced, bFGF-stimulated cell growth (BAAE cells; bFGF-stimulated cell growth, peptide about 100 μg/ml): about 92%; cell population reduced, basal cell growth (BAAE cells; basal cell growth, peptide about 100 μg/ml): about 84%; antagonist activity to both basal and bFGF-stimulated endothelial cell growth (BAAE cells; result in words): full antagonist activity |
| H-YRSRKYSSWYVAL-NH2 [bFGF(106-118)-NH2, H-Tyr-Arg-Ser-Arg-Lys-Tyr-Ser-Ser-Trp-Tyr-Val-Ala-Leu-NH2] | – | inhibits binding | – | antagonist activity in mitogenic assays (BAAE cells; result in words): partial antagonist activity |
| H-YRSRKYSSWY-NH2 [bFGF(106-115)-NH2, H-Tyr-Arg-Ser-Arg-Lys-Tyr-Ser-Ser-Trp-Tyr-NH2] | very good inhibition | very strongly inhibits | binds to heparin | – |
| H-YRSRKYSSWYVALKR-NH2 [bFGF(106-120)-NH2, H-Tyr-Arg-Ser-Arg-Lys-Tyr-Ser-Ser-Trp-Tyr-Val-Ala-Leu-Lys-Arg-NH2] | very good inhibition | very strongly inhibits | binds to heparin | – |
| H-YNTYRSRKYSSWYVALKRTGQYKLGPKTGPGQKAILFLPMSAKS-NH2 [bFGF(103-146)-NH2, H-Tyr-Asn-Thr-Tyr-Arg-Ser-Arg-Lys-Tyr-Ser-Ser-Trp-Tyr-Val-Ala-Leu-Lys-Arg- Thr-Gly-Gln-Tyr-Lys-Leu-Gly -Pro-Lys-Thr-Gly-Pro-Gly-Gln-Lys-Ala-Ile-Leu-Phe-Leu-Pro-Met-Ser-Ala-Lys-Ser-NH2] | – | very strongly inhibits | – | inhibition of FGF binding to heparin [2]: very strongly inhibits |
| YNTYRSRKYSSWYVALKR-NH2 [bFGF(103-120)-NH2, H-Tyr-Asn-Thr-Tyr-Arg-Ser-Arg-Lys-Tyr-Ser-Ser-Trp-Tyr-Val-Ala-Leu-Lys-Arg- NH2] | very good inhibition | very strongly inhibits | binds to heparin | – |
| H-FFFERLESNNYNTYRSRKYSSWYVALKR-NH2 [bFGF(93-120)-NH2, H-Phe-Phe-Phe-Glu-Arg-Leu-Glu-Ser-Asn-Asn-Tyr-Asn-Thr-Tyr-Arg-Ser-Arg-Lys- Tyr-Ser-Ser-Trp-Tyr-Val-Ala Leu-Lys-Arg-NH2] | – | inhibits the binding | binds to heparin | antagonist activity to both basal and bFGF-stimulated endothelial cell growth (BAAE cells; result in words): full antagonist activity |
| CC[C@H](C)[C@H](NC(=O)[C@H](CO)NC(=O)[C@@H](NC(=O)[C@@H](NC(=O)CNC(=O)[C@H](CCCNC(=N)N)NC(=O)[C@H](CCC(=O)O)NC(=O)[C@H](CCC(=O)O)NC(=O)[C@H](C)NC(=O)[C@H](CCC(N)=O)NC(=O)[C@H](CC(C)C)NC(=O)[C@H](CCC(N)=O)NC(=O)[C@H](CC(C)C)NC(=O)[C@H](CCCCN)NC(=O)[C@@H](NC(=O)[C@H](Cc1c[nH]cn1)NC(=O)[C@@H]1CCCN1C(=O)[C@H](CC(=O)O)NC(=O)[C@H](CO)NC(=O)[C@H](CCCCN)NC(=O)[C@H](CCC(=O)O)NC(=O)[C@H](CCCNC(=N)N)NC(=O)[C@@H](NC(=O)CN(C)C(=O)[C@H](CC(=O)O)NC(=O)[C@@H](NC(=O)[C@H](CCCNC(=N)N)NC(=O)CNC(=O)[C@H](CC(=O)O)NC(=O)[C@@H]1CCCN1)C(C)C)C(C)C)[C@@H](C)CC)C(C)C)C(C)C)C(=O)N[C@@H](CCCCN)C(=O)NCC(=O)N[C@H](C(N)=O)C(C)C [[Sar42]-bFGF(36-68)-NH2] (H-PDGRVD[Sar]VREKSDPHIKLQLQAEERGVVSIKGV-NH2) | – | – | – | antagonist activity to both basal and bFGF-stimulated endothelial cell growth (BAAE cells; result in words): full antagonist activity |
| YKNGGFFLRIHPDGRVDGVREKSDPHIKLQLQAEERGVVSIKGV-NH2 [[Tyr^25]-bFGF(25-68)-NH2] | – | – | very strong binding affinity | binding affinity for BHK cells [1]: very strong binding affinity; reducing cell population, bFGF-stimulated endothelial cell growth (BAAE cells; bFGF-stimulated growth, manner of Example II, concentration not given): about 95%; reducing cell population, basal endothelial cell growth (BAAE cells; basal growth, manner of Example II, concentration not given): about 86%; antagonist activity to both basal and bFGF-stimulated endothelial cell growth (BAAE cells; result in words): full antagonist activity |
